Measured values from US20210355104A1, “ADENOSINE RECEPTOR BINDING COMPOUNDS” (Nikang Therapeuticsm Inc., priority 2018, published 2021).

These compounds were tested against Adenosine A2A receptor (Homo sapiens, UniProt P29274) (assay: cAMP assay in 293A cells stably expressing the adenosine A2A receptor (CGS21680 stimulation, HTRF)). Conditions: 293A cells stably expressing A2A receptor; 0.1% BSA; 1 uM CGS21680 stimulation; replicate values separated by /; read-out: cAMP (nM) 0.1% BSA, 1 uM CGS.
Adenosine A2A receptor, sequence (P29274 whole entry): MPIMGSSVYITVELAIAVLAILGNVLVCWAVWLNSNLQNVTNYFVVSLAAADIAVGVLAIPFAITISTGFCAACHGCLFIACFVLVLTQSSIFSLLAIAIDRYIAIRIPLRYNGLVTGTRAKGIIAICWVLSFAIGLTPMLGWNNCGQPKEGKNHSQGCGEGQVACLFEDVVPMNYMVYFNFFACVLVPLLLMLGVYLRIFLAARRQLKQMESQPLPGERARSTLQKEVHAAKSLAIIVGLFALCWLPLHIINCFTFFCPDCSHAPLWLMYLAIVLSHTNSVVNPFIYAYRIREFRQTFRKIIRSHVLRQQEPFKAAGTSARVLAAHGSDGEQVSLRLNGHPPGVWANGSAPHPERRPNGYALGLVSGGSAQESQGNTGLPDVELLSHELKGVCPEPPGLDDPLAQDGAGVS
Type: cell-based
Design: expressed in transfected cells; host or cells: 293A cells (Invitrogen, Cat# R705-07) infected with A2A-expressing lentivirus (custom packaged by Biosettia), puromycin selected
With `Cc1cc(-c2c(OCc3nc(OCC(=O)O)cc4ccccc34)nc(N)nc2-c2ccc(F)cc2)cc(C(F)F)n1` [Example 405, 2-((1-(((2-amino-5-(2-(difluoromethyl)-6-methylpyridin-4-yl)-6-(4-fluorophenyl)pyrimidin-4-yl)oxy)methyl)isoquinolin-3-yl)oxy)acetic acid] the IC50 was 619 nM. Work on `Cc1cc(-c2c(OCc3cccc(NS(C)(=O)=O)n3)nc(N)nc2-c2ccc(F)cc2)cc(C(F)F)n1` [Example 411, N-(6-(((2-amino-5-(2-(difluoromethyl)-6-methylpyridin-4-yl)-6-(4-fluorophenyl)pyrimidin-4-yl)oxy)methyl)pyridin-2-yl)methanesulfonamide] yielded an IC50 of 3190 nM.

Same assay, conditions: 293A-A2AR cells, 0.1% BSA, 1 uM CGS; read-out: cAMP (nM) 0.1% BSA, 1 uM CGS
`CCc1nn(CC(C)(C)C#N)nc1COc1nc(N)nc(-c2ccc(F)cc2)c1-c1cc(C)nc(C(F)F)c1` [Example 324, 3-(4-(((2-amino-5-(2-(difluoromethyl)-6-methylpyridin-4-yl)-6-(4-fluorophenyl)pyrimidin-4-yl)oxy)methyl)-5-ethyl-2H-1,2,3-triazol-2-yl)-2,2-dimethylpropanenitrile] gave an IC50 of 2080 nM. `Cc1cc(-c2c(NCc3nc4ccccc4n3C)nc(N)nc2-c2ccc(F)cc2)cc(C(F)F)n1` [Example 351, 5-(2-(difluoromethyl)-6-methylpyridin-4-yl)-6-(4-fluorophenyl)-N^4-((1-methyl-1H-benzo[d]imidazol-2-yl)methyl)pyrimidine-2,4-diamine] showed an IC50 of 13100 nM. Compound `Cc1cc(-c2c(OCc3cccc(C4(C#N)CCOCC4)n3)nc(N)nc2-c2ccc(F)cc2)cc(C(F)F)n1` [Example 275, 4-(6-(((2-amino-5-(2-(difluoromethyl)-6-methylpyridin-4-yl)-6-(4-fluorophenyl)pyrimidin-4-yl)oxy)methyl)pyridin-2-yl)tetrahydro-2H-pyran-4-carbonitrile] has an IC50 of 321 nM. `CCc1nn(CC)nc1COc1nc(N)nc(-c2cccc(C#N)c2C)c1-c1cc(C)nc(C(F)F)c1` [Example 254, 3-(2-amino-6-((2,5-diethyl-2H-1,2,3-triazol-4-yl)methoxy)-5-(2-(difluoromethyl)-6-methylpyridin-4-yl)pyrimidin-4-yl)-2-methylbenzonitrile] showed an IC50 of 23500 nM. In the case of `Cc1cc(-c2c(OCc3nc4n(n3)CCCC4)nc(N)nc2-c2ccc(F)cc2)cc(C(F)F)n1` [Example 352, 5-(2-(difluoromethyl)-6-methylpyridin-4-yl)-4-(4-fluorophenyl)-6-((5,6,7,8-tetrahydro-[1,2,4]triazolo[1,5-a]pyridin-2-yl)methoxy)pyrimidin-2-amine], the IC50 is reported as 1790 nM. `Cc1cc(-c2c(-c3cn(Cc4cccc(C(C)(C)O)n4)nn3)nc(N)nc2-c2cccc(C#N)c2C)cc(C(F)F)n1` [Example 312, 3-(2-amino-5-(2-(difluoromethyl)-6-methylpyridin-4-yl)-6-(1-((6-(2-hydroxypropan-2-yl)pyridin-2-yl)methyl)-1H-1,2,3-triazol-4-yl)pyrimidin-4-yl)-2-methylbenzonitrile] showed an IC50 of 16600 nM. With `Cc1cc(-c2c(OCc3ccn(CC(C)(C)O)n3)nc(N)nc2-c2ccc(F)cc2)cc(C(F)F)n1` [Example 258, 1-(3-(((2-amino-5-(2-(difluoromethyl)-6-methylpyridin-4-yl)-6-(4-fluorophenyl)pyrimidin-4-yl)oxy)methyl)-1H-pyrazol-1-yl)-2-methylpropan-2-ol] the IC50 was 2390 nM. In the case of `Cc1cc(-c2c(OCc3cccc(N4CC[C@@H](C(=O)O)C4)n3)nc(N)nc2-c2ccc(F)cc2)cc(C(F)F)n1` [Example 310, (R)-1-(6-(((2-amino-5-(2-(difluoromethyl)-6-methylpyridin-4-yl)-6-(4-fluorophenyl)pyrimidin-4-yl)oxy)methyl)pyridin-2-yl)pyrrolidine-3-carboxylic acid], the IC50 is reported as 2490 nM. For `Cc1cc(-c2c(OCc3cccc(N(C)CC(=O)O)n3)nc(N)nc2-c2ccc(F)cc2)cc(C(F)F)n1` [Example 327, N-(6-(((2-amino-5-(2-(difluoromethyl)-6-methylpyridin-4-yl)-6-(4-fluorophenyl)pyrimidin-4-yl)oxy)methyl)pyridin-2-yl)-N-methylglycine], the IC50 was 4390 nM.
